According to ChEMBL document CHEMBL1932973, “5- and 6-membered (thio)lactones are prodrug type carbonic anhydrase inhibitors” (Bioorg Med Chem Lett, 2012):

Columns and labels:
Carbonic anhydrase 9 [1] = target: T1, Carbonic anhydrase 9 (Homo sapiens, UniProt Q16790); assay: Inhibition of human CA9 pre-incubated for 15 mins to 24 hrs measured after 6 hrs by phenol red-based stopped-flow CO2 hydrase assay
Carbonic anhydrase 2 [2] = target: T2, Carbonic anhydrase 2 (Homo sapiens, UniProt P00918); assay: Inhibition of human CA2 pre-incubated for 15 mins to 24 hrs measured after 6 hrs by phenol red-based stopped-flow CO2 hydrase assay
Carbonic anhydrase 9 [3] = target: T1, Carbonic anhydrase 9; assay: Inhibition of human CA9 pre-incubated for 15 mins to 24 hrs measured after 15 mins by phenol red-based stopped-flow CO2 hydrase assay
Carbonic anhydrase 2 [4] = target: T2, Carbonic anhydrase 2; assay: Inhibition of human CA2 pre-incubated for 15 mins to 24 hrs measured after 15 mins by phenol red-based stopped-flow CO2 hydrase assay
Carbonic anhydrase 1 [5] = target: T3, Carbonic anhydrase 1 (Homo sapiens, UniProt P00915); assay: Inhibition of human CA1 pre-incubated for 15 mins to 24 hrs measured after 15 mins by phenol red-based stopped-flow CO2 hydrase assay
Carbonic anhydrase 1 [6] = target: T3, Carbonic anhydrase 1; assay: Inhibition of human CA1 pre-incubated for 15 mins to 24 hrs measured after 6 hrs by phenol red-based stopped-flow CO2 hydrase assay

T3 sequence (P00915 whole entry): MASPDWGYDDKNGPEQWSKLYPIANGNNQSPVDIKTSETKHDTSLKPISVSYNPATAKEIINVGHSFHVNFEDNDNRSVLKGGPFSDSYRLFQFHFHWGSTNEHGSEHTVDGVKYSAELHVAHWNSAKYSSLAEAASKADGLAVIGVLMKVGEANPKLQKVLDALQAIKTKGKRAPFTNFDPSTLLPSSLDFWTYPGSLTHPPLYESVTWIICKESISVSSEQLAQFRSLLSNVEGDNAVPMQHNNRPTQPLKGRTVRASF

Structure (SMILES) | Ki (Carbonic anhydrase 9 [1]) [µM] | Ki (Carbonic anhydrase 2 [2]) [µM] | further results
O=c1cccco1 | 1.6 | > 100 | –
S=c1cccco1 | 7.45 | > 100 | –
Cc1cc(C)oc(=S)c1 | 9.51 | > 100 | –
O=C(O)/C=C/CCO | – | – | Ki (Carbonic anhydrase 9 [3]): 1.15 µM; Ki (Carbonic anhydrase 2 [4]): > 100 µM; Ki (Carbonic anhydrase 1 [5]): 8.46 µM
CC1CCC(=O)O1 (stereo unspecified) | 0.92 | > 100 | –
COC1=CC(=O)OC1 | 3.38 | > 100 | –
Cc1cc(C)oc(=O)c1 | – | > 100 | –
O=C1CCCCO1 | 3.66 | > 100 | –
O=C1C=CCCO1 | 1.35 | > 100 | –
O=C1C=CCO1 [FURAN-2(5H)-ONE] | – | > 100 | –
O=C(O)/C=C/c1ccccc1O [O-COUMARIC ACID] | > 100 | – | Ki (Carbonic anhydrase 1 [6]): 3.4 µM
